Reference: ChEMBL document CHEMBL1201862, “PubChem BioAssay data set” (2004)
Activity calls are given as the source filed them.

Key:
[1] = biological target: T1, Voltage-gated N-type calcium channel alpha-1B subunit/Amyloid beta A4 precursor protein-binding family A member 1 (Homo sapiens, UniProt Q00975+Q02410); type: protein assay
[2] = biological target: T1, Voltage-gated N-type calcium channel alpha-1B subunit/Amyloid beta A4 precursor protein-binding family A member 1; type: protein assay; remark: listed apart in the source
[3] = biological target: T2, Calpain-2 catalytic subunit (Sus scrofa, UniProt P43367); assay: m-calpain protease blockers, concentration series – biochemical, fluorogenic peptide substrate, dose response (AID 1420); type: functional
T2 sequence (P43367 whole entry): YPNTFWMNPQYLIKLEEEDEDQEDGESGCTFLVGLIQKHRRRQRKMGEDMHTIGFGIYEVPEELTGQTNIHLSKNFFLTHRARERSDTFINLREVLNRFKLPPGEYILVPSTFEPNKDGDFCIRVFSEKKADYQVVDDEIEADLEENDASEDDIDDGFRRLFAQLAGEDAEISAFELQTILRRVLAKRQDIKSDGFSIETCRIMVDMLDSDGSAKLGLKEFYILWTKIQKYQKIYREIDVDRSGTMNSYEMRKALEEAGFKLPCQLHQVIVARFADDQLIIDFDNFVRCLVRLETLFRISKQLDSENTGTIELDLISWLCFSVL

Coagulation factor XII = biological target: T3, Coagulation factor XII (Homo sapiens, UniProt P00748); type: functional;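 note: activated factor XIIa alpha cleaving a fluorogenic AMC peptide substrate; inhibitor potency from loss of enzyme activity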
T3 sequence (P00748 whole entry): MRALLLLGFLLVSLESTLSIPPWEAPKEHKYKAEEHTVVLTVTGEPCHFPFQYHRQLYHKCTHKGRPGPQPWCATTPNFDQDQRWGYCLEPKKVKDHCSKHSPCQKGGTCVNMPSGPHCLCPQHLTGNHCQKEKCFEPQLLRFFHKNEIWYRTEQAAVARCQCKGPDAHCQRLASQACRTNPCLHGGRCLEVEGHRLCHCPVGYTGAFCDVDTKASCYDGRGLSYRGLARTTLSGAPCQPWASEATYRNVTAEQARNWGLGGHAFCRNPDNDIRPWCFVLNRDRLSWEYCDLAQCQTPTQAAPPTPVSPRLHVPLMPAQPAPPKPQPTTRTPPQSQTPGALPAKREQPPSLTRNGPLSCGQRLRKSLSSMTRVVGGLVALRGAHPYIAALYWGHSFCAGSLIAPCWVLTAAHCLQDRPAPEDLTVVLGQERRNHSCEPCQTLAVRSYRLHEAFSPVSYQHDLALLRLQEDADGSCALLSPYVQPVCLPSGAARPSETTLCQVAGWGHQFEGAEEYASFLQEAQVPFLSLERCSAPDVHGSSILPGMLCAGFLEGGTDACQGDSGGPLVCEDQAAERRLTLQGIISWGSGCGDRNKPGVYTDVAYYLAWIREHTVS

[4] = NIH-3T3 fibroblast cytotoxicity, dose response, cytotoxicity control, cell-based, fluorescence, Alamar Blue, secondary assay (AID 2327); type: functional;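 note: NIH-3T3 mouse fibroblasts cultured with fluconazole at 8 µg/mL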
[5] = fluconazole-exposed Candida albicans growth modulators – fluorescence, retest, confirmation (AID 2467); type: functional, cell-based
[6] = biological target: FAD-linked sulfhydryl oxidase ALR (Homo sapiens, UniProt P55789); assay: ALR-catalysed DTT oxidation blockers – biochemical, H2O2 detection, luminescence, cherry-pick, dose response (AID 493248)
Genome polyprotein = Genome polyprotein (dengue virus type 2, UniProt P29990); assay: flavivirus cap methylation enzyme inhibition – biochemical, confirmation dose response, primary screen (AID 588689); type: functional
BJ [7] = assay: BJ-TERT fibroblast viability loss – cell-based, RAS-independent, luminescence, dose response (AID 1933); type: functional; conditions: Homo sapiens
BJ [8] = assay: cells; type: functional, cell-based; conditions: Homo sapiens
BJ [9] = assay: BJ-TERT-LT-ST fibroblast viability loss – cell-based, RAS-independent, luminescence, dose response (AID 1935); type: functional; conditions: Homo sapiens;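 note: BJ fibroblasts immortalized with TERT plus LT and ST oncogenes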
[10] = DRD fibroblast viability loss – cell-based, non-viral oncogenic, luminescence, dose response (AID 1934); type: functional; conditions: Homo sapiens

T1 sequence (Q00975 whole entry): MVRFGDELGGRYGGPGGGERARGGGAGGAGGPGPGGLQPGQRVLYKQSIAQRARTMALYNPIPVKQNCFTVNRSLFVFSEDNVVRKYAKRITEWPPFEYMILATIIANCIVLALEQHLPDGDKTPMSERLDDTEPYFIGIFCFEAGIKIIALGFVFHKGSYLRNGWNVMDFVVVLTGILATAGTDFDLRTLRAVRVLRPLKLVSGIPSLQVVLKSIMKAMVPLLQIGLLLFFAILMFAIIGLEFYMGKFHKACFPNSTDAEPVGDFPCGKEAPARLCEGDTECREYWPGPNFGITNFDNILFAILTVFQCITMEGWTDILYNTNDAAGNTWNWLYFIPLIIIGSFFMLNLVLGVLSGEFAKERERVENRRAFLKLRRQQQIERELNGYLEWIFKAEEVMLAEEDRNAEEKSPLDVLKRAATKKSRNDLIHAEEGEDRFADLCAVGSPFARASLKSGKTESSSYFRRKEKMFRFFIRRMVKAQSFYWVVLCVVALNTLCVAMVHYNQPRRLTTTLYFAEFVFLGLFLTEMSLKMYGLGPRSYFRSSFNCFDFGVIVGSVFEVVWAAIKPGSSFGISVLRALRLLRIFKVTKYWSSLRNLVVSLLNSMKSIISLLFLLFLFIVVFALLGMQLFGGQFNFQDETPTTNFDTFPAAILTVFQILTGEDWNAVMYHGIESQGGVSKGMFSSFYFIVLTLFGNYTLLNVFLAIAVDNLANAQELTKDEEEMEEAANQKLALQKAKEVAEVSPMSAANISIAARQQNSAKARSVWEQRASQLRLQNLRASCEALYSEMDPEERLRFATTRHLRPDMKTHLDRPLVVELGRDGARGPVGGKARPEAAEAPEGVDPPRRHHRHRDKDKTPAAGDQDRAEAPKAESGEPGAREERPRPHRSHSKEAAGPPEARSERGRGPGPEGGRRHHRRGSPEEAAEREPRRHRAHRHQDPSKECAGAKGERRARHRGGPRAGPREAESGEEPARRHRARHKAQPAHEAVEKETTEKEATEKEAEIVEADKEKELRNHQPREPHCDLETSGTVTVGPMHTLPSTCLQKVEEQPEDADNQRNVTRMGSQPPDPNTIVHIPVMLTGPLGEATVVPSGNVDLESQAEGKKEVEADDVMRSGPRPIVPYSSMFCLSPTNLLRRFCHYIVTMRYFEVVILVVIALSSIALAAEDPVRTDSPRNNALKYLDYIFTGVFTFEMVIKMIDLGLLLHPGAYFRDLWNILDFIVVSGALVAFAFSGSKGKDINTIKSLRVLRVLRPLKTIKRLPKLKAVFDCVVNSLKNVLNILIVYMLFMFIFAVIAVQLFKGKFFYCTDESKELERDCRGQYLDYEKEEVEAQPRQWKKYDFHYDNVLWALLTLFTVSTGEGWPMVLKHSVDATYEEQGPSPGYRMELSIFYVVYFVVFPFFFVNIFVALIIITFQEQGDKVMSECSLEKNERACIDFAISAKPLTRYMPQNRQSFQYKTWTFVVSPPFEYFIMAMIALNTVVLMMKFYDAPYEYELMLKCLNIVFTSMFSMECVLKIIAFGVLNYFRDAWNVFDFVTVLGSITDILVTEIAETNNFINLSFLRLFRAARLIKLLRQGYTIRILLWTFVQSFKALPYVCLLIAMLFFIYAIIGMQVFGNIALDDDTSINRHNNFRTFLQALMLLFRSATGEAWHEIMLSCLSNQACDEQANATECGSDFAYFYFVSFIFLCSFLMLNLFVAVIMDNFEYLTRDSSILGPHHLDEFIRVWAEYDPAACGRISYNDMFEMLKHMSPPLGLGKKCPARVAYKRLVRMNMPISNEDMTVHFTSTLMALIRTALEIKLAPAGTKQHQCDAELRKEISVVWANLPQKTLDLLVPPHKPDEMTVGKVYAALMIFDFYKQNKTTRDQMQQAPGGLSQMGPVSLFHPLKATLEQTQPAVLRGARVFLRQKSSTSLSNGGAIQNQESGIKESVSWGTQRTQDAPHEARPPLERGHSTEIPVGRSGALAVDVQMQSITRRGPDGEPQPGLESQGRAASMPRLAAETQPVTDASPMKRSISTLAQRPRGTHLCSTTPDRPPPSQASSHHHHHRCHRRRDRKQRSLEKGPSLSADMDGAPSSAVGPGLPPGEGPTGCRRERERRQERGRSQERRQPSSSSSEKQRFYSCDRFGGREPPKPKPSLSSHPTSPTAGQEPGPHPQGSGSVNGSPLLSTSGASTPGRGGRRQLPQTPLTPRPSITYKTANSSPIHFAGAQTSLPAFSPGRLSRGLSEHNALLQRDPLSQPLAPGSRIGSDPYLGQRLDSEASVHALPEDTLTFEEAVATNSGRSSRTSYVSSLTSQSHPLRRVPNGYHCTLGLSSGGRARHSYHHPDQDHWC
T1 sequence (Q02410 whole entry): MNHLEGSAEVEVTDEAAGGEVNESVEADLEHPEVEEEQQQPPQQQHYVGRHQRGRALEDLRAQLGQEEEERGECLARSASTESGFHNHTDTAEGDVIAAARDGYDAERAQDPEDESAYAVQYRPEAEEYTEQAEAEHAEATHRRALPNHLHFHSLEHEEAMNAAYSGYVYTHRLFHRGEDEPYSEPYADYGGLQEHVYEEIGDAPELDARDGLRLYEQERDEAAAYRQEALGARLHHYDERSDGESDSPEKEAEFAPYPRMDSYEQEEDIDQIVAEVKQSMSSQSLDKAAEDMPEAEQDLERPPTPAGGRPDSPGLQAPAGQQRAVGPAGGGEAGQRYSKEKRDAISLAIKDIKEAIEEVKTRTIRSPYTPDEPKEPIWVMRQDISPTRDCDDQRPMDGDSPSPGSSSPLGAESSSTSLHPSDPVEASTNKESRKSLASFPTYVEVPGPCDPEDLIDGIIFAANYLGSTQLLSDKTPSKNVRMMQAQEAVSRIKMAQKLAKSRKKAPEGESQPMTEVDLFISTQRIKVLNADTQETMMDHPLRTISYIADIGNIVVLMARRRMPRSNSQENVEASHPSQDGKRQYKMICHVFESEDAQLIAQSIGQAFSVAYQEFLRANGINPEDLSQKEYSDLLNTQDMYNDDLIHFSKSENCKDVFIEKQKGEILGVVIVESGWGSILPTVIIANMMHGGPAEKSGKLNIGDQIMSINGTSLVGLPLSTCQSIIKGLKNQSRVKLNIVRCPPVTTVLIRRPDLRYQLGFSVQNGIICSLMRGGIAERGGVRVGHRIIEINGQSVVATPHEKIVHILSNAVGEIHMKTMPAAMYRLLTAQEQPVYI
Genome polyprotein, sequence (P29990 2492-3391 limits assumed): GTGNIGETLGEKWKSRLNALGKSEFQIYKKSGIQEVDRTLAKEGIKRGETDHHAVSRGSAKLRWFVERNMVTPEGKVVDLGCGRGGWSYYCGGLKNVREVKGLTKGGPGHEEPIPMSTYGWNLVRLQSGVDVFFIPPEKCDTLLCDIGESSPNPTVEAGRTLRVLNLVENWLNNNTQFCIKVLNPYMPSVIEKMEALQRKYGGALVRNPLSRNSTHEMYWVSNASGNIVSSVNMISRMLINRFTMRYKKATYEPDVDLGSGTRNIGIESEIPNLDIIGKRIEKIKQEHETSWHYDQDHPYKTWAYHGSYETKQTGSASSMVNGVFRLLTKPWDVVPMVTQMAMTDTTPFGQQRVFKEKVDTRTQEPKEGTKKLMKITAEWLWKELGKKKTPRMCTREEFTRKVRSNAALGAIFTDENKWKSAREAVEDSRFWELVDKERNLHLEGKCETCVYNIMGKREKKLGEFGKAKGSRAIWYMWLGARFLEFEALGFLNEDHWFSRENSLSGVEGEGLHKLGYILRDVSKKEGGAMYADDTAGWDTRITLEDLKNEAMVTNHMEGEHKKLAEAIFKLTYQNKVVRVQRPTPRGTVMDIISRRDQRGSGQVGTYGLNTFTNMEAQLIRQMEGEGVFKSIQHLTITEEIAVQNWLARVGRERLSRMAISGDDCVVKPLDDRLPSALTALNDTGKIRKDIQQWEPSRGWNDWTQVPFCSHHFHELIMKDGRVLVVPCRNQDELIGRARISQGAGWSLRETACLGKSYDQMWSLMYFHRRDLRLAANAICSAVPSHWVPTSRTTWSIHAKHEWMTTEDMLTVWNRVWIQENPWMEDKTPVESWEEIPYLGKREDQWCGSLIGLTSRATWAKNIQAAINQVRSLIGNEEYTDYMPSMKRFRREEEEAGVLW
FAD-linked sulfhydryl oxidase ALR, sequence (P55789 whole entry): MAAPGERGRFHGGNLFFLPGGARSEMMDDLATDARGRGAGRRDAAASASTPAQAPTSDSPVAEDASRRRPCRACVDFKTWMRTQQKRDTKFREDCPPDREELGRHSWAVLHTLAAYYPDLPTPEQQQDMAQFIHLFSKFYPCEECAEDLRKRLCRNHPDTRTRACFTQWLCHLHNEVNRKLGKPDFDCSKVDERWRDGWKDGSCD

O=C(CCN1C(=O)/C(=C/c2ccccc2F)SC1=S)NC1C=CS(=O)(=O)C1 (centres undefined)
IC50 [1]: 2.87 µM (active)
IC50 [2]: > 50 µM (inactive)

COc1ccc(S(=O)(=O)N2CCCCC2)cc1NC(=O)CN(C)C1CCCCC1
IC50 [3]: 10.8 µM (not active)
IC50 (Coagulation factor XII): > 50 µM (inactive)

CN(C)C(=O)c1cn(-c2ccccc2)nc1-c1cccs1
EC50 [4]: 24 µM (inconclusive)
EC50 [5]: 7.34 µM (active)

Cc1ccc(NC(=O)c2cccc(C(=O)Nc3ccc(C)cc3C(=O)O)c2)c(C(=O)O)c1
AC50 [6]: 2.11 µM (active)
IC50 (Genome polyprotein): 22.3 µM (active)

Cn1c(NCc2ccco2)nc2c1c(=O)n(Cc1ccc(Br)cc1)c(=O)n2C
IC50 [3]: 2.84 µM (not active)

NC(=O)c1ccc(-n2nnnc2SCC(=O)Nc2ccccc2-c2ccccc2)cc1
IC50 [3]: 5.14 µM (not active)

CCC(=O)c1ccc(Oc2ccc(C(=O)c3ccc(C)cc3)cc2[N+](=O)[O-])cc1
EC50 (BJ [7]): > 150 µM (not active)
EC50 (BJ [8]): > 150 µM (not active)
EC50 (BJ [9]): > 150 µM (not active)
EC50 [10]: > 150 µM (not active)
